The values below come from US8859569B2, “Substituted annellated pyrimidines and use thereof” (Bayer Pharma Aktiengesellschaft, priority 2011, dated 2014).

Experiment [1] concerns the target T1, recombinant guanylate cyclase reporter cell line (Rattus norvegicus, UniProt P19686+P20595).
T1 construct: expressed in transfected cells
T1 sequence (P20595 1-619): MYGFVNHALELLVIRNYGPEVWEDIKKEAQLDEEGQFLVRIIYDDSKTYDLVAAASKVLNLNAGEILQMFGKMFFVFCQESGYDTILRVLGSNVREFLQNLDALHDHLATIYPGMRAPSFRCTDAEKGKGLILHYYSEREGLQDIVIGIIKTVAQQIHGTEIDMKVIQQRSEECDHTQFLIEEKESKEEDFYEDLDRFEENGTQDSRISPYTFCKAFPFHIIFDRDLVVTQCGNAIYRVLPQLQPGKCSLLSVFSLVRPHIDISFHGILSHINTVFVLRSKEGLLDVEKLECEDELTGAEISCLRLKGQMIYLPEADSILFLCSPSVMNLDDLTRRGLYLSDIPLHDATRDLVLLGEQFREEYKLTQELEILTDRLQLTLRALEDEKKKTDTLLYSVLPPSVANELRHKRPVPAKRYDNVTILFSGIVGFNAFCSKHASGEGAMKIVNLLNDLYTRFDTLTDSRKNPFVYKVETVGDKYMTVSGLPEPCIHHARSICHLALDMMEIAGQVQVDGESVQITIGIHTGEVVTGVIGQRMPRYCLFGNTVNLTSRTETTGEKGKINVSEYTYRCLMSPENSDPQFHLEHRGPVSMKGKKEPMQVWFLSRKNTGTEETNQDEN
T1 sequence (P19686 1-690): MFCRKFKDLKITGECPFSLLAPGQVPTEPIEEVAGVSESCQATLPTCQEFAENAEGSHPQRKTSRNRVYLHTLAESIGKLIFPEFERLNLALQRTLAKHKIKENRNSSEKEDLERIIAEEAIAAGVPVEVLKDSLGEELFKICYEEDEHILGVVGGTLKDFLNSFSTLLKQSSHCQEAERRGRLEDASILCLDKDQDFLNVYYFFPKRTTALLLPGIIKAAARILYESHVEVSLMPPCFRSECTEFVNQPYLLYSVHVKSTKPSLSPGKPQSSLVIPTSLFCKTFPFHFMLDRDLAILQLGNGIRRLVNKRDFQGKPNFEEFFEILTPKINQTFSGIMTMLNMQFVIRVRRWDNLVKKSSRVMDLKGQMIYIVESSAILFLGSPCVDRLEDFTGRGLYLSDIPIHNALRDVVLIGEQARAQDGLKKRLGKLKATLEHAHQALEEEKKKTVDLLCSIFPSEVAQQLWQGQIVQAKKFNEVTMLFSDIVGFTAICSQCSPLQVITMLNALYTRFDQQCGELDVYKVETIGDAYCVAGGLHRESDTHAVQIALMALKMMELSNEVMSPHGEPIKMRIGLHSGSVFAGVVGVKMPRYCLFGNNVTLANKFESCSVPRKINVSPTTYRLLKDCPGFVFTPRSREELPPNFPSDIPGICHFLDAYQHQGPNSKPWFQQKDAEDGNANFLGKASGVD
The experiment in a line: Action on recombinant guanylate cyclase reporter cell line. Type of experiment: cell-based. The procedure:
B-2. Action on Recombinant Guanylate Cyclase Reporter Cell Line
The cellular action of the compounds according to the invention is determined on a recombinant guanylate cyclase reporter cell line, as described in F. Wunder et al., Anal. Biochem. 339, 104-112 (2005).

Experiment [2] addresses T2, human phosphodiesterase 5 (PDE-5) (Homo sapiens, UniProt O76074).
T2 construct: PDE-5 preparations are obtained from human platelets by lysis; from tissue; host or cells: human platelets
The experiment in a line: Inhibition of human phosphodiesterase 5 (PDE-5), SPA assay. Type of experiment: biochemical. Conditions: PDE-5 preparation from human platelets, [8-3H]cGMP substrate. On the procedure: B-6. Inhibition of Human Phosphodiesterase 5 (PDE-5)
PDE-5 preparations are obtained from human platelets by lysis (Microfluidizer®, 800 bar, 3 passages), followed by centrifugation (75000 g, 60 min, 4° C.) and ion-exchange chromatography of the supernatant on a Mono Q 10/10 column (linear sodium chloride gradient, elution with a 0.2-0.3M solution of sodium chloride in buffer (20 mM Hepes pH 7.2, 2 mM magnesium chloride). Fractions that have PDE-5 activity are combined (PDE-5 preparation) and stored at −80° C.
For determining their in-vitro action on human PDE-5, the test substances are dissolved in 100% DMSO and serial dilutions are prepared. Typically, dilution series (1:3) from 200 μM to 0.091 μM are prepared (resultant final concentrations in the test: 4 μM to 0.0018 μM). In each case 2 μL of the diluted solutions of the substance are put in the wells of microtitre plates (Isoplate-96/200W; Perkin-Elmer). Then 50 μL of a dilution of the PDE-5 preparation described above is added. The dilution of the PDE-5 preparation is selected so that during subsequent incubation less than 70% of the substrate is reacted (typical dilution: 1:100; dilution buffer: 50 mM Tris/hydrochloric acid pH 7.5, 8.3 mM magnesium chloride, 1.7 mM EDTA, 0.2% BSA). The substrate [8-^3H]cyclic guanosine-3′,5′-monophosphate (1 μCi/μL; Perkin-Elmer) is diluted 1:2000 with assay buffer (50 mM Tris/hydrochloric acid pH 7.5, 8.3 mM magnesium chloride, 1.7 mM EDTA) to a concentration of 0.0005 μCi/μL. The enzyme reaction is finally started by adding 50 μL (0.025 μCi) of the diluted substrate. The test preparations are incubated for 60 min at room temperature and the reaction is stopped by adding 25 μL of a suspension of 18 mg/mL of Yttrium Scintillation Proximity Beads in water (phosphodiesterase beads for SPA assays, RPNQ 0150, Perkin-Elmer). The microtitre plates are sealed with film and left to stand for 60 min at room temperature. Then the plates are measured for 30 s per well in a Microbeta scintillation counter (Perkin-Elmer). IC50 values are determined on the basis of the graphs plotted of the substance concentration versus the percentage PDE-5 inhibition.

For `CC1(C)C(=O)Nc2nc(-c3nn(Cc4ccccc4F)c4ncccc34)nc(N[C@@H]3CCCOC3)c21` [Example 51, 2-[1-(2-fluorobenzyl)-1H-pyrazolo[3,4-b]pyridin-3-yl]-5,5-dimethyl-4-(tetrahydro-2H-pyran-3-ylamino)-5,7-dihydro-6H-pyrrolo[2,3-d]pyrimidin-6-one], in experiment [1], the “MEC (minimal effective concentration)” value was found to be 0.03 μm. In addition, in experiment [2], the IC50 (usually the concentration that inhibits the measured activity by half) stood at 5 nM.
For `CN1CCN(c2nc(-c3nn(Cc4ccccc4F)c4ncccc34)nc3c2C(C)(C)C(=O)N3)CC1` [Example 70, 2-[1-(2-fluorobenzyl)-1H-pyrazolo[3,4-b]pyridin-3-yl]-5,5-dimethyl-4-(4-methylpiperazin-1-yl)-5,7-dihydro-6H-pyrrolo[2,3-d]pyrimidin-6-one], in that order: 0.03 μm and 80 nM.
The like results for `CC1(C)C(=O)Nc2nc(-c3nn(Cc4ccccc4F)c4ncccc34)nc(NC[C@H]3CNC(=O)C3)c21` [Example 66, 2-[1-(2-fluorobenzyl)-1H-pyrazolo[3,4-b]pyridin-3-yl]-5,5-dimethyl-4-{[(5-oxopyrrolidin-3-yl)methyl]amino}-5,7-dihydro-6H-pyrrolo[2,3-d]pyrimidin-6-one] were, in that order, 0.1 μm and 16 nM.
The like results for `CC1(C)C(=O)Nc2nc(-c3nn(Cc4cccc(F)c4F)c4ncc(F)cc34)nc(O)c21` [Example 116, 2-[1-(2,3-Difluorobenzyl)-5-fluoro-1H-pyrazolo[3,4-b]pyridin-3-yl]-4-hydroxy-5,5-dimethyl-5,7-dihydro-6H-pyrrolo[2,3-d]pyrimidin-6-one] were, in that order, 0.03 μm and 83 nM.
With `CC1(C)C(=O)Nc2nc(-c3nn(Cc4ccccc4F)c4ncccc34)nc(NCCn3cccn3)c21` [Example 58, 2-[1-(2-fluorobenzyl)-1H-pyrazolo[3,4-b]pyridin-3-yl]-5,5-dimethyl-4-{[2-(1H-pyrazol-1-yl)ethyl]amino}-5,7-dihydro-6H-pyrrolo[2,3-d]pyrimidin-6-one], the “MEC (minimal effective concentration)” value in experiment [1] was 0.03 μm. In experiment [2], inhibition was half-maximal at 270 nM (IC50).
As to `CC1(C)C(=O)Nc2nc(-c3nn(Cc4ccccc4F)c4ncccc34)nc(Nc3cccnc3)c21` [Example 65, 2-[1-(2-fluorobenzyl)-1H-pyrazolo[3,4-b]pyridin-3-yl]-5,5-dimethyl-4-(pyridin-3-ylamino)-5,7-dihydro-6H-pyrrolo[2,3-d]pyrimidin-6-one], in experiment [1], the “MEC (minimal effective concentration)” value was found to be 0.1 μm. The molecule also gave an IC50 in experiment [2] of 430 nM.
As to `CC1(C)C(=O)Nc2nc(-c3nn(Cc4ccccc4F)c4ncccc34)nc(NCCn3ccnn3)c21` [Example 47, 2-[1-(2-fluorobenzyl)-1H-pyrazolo[3,4-b]pyridin-3-yl]-5,5-dimethyl-4-{[2-(1H-1,2,3-triazol-1-yl)ethyl]amino}-5,7-dihydro-6H-pyrrolo[2,3-d]pyrimidin-6-one], the “MEC (minimal effective concentration)” value in experiment [1] came out at 0.1 μm. In experiment [2], this molecule registered an IC50 of 83 nM.
The like results for `Cc1ccc(CNc2nc(-c3nn(Cc4ccccc4F)c4ncccc34)nc3c2C(C)(C)C(=O)N3)o1` [Example 41, 2-[1-(2-fluorobenzyl)-1H-pyrazolo[3,4-b]pyridin-3-yl]-5,5-dimethyl-4-{[(5-methylfuran-2-yl)methyl]amino}-5,7-dihydro-6H-pyrrolo[2,3-d]pyrimidin-6-one] were, in that order, 0.01 μm and 170 nM.
`CC1(C)C(=O)Nc2nc(-c3nn(Cc4ccccc4F)c4ncccc34)nc(NCCC(N)=O)c21` [Example 73, N^3-{2-[1-(2-fluorobenzyl)-1H-pyrazolo[3,4-b]pyridin-3-yl]-5,5-dimethyl-6-oxo-6,7-dihydro-5H-pyrrolo[2,3-d]pyrimidin-4-yl}-beta-alaninamide]: in experiment [1], the “MEC (minimal effective concentration)” value turned out to be 0.3 μm. In experiment [2], this molecule came in with an IC50 of 16 nM.
For `CC1(C)C(=O)Nc2nc(-c3nn(Cc4ccccc4F)c4ncccc34)nc(NCc3cccc(F)c3)c21` [Example 78, 4-[(3-fluorobenzyl)amino]-2-[1-(2-fluorobenzyl)-1H-pyrazolo[3,4-b]pyridin-3-yl]-5,5-dimethyl-5,7-dihydro-6H-pyrrolo[2,3-d]pyrimidin-6-one], in that order: 0.03 μm and 330 nM.
The like results for `CC1(C)CCN(c2nc(-c3nn(Cc4ccccc4F)c4ncccc34)nc3c2C(C)(C)C(=O)N3)CC1` [Example 68, 4-(4,4-dimethylpiperidin-1-yl)-2-[1-(2-fluorobenzyl)-1H-pyrazolo[3,4-b]pyridin-3-yl]-5,5-dimethyl-5,7-dihydro-6H-pyrrolo[2,3-d]pyrimidin-6-one] were, in that order, 0.1 μm and 35 nM.
The like results for `CCOCCCNc1nc(-c2nn(Cc3ccccc3F)c3ncccc23)nc2c1C(C)(C)C(=O)N2` [Example 71, 4-[(3-ethoxypropyl)amino]-2-[1-(2-fluorobenzyl)-1H-pyrazolo[3,4-b]pyridin-3-yl]-5,5-dimethyl-5,7-dihydro-6H-pyrrolo[2,3-d]pyrimidin-6-one] were, in that order, 0.01 μm and 42 nM.
`Cc1cc(Nc2nc(-c3nn(Cc4ccccc4F)c4ncccc34)nc3c2C(C)(C)C(=O)N3)nn1C` [Example 50, 4-[(1,5-dimethyl-1H-pyrazol-3-yl)amino]-2-[1-(2-fluorobenzyl)-1H-pyrazolo[3,4-b]pyridin-3-yl]-5,5-dimethyl-5,7-dihydro-6H-pyrrolo[2,3-d]pyrimidin-6-one]: the “MEC (minimal effective concentration)” value in experiment [1] is recorded as 0.1 μm. For the same molecule, in experiment [2], the IC50 was 40 nM.
For `Cn1nccc1CNc1nc(-c2nn(Cc3ccccc3F)c3ncccc23)nc2c1C(C)(C)C(=O)N2` [Example 40, 2-[1-(2-Fluorobenzyl)-1H-pyrazolo[3,4-b]pyridin-3-yl]-5,5-dimethyl-4-{[(1-methyl-1H-pyrazol-5-yl)methyl]amino}-5,7-dihydro-6H-pyrrolo[2,3-d]pyrimidin-6-one], in that order: 0.1 μm and 11 nM.
The like results for `CC1(C)C(=O)Nc2nc(-c3nn(Cc4ccccc4F)c4ncccc34)nc(NCc3ccncc3)c21` [Example 85, 2-[1-(2-fluorobenzyl)-1H-pyrazolo[3,4-b]pyridin-3-yl]-5,5-dimethyl-4-[(pyridin-4-ylmethyl)amino]-5,7-dihydro-6H-pyrrolo[2,3-d]pyrimidin-6-one] were, in that order, 0.3 μm and 4.2 nM.
